In PubChem BioAssay (NCI):
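The compound was tested at five concentrations on cells cultured in 96-well plates, with a 48-hour exposure period. GI50 marks 50% less growth. TGI marks complete inhibition of growth.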

Tests used:
Assay in all cases: NCI tumour cell line growth inhibition, 48 h
A549 NSCLC = tested on: A549 NSCLC
M14 melanoma = tested on: M14 melanoma
MALME-3M melanoma = tested on: MALME-3M melanoma
BT-549 breast = tested on: BT-549 breast
HT29 colon = tested on: HT29 colon
LOX IMVI melanoma = tested on: LOX IMVI melanoma
HOP-62 NSCLC = tested on: HOP-62 NSCLC
IGROV1 ovarian = tested on: IGROV1 ovarian
NCI-H226 lung = tested on: NCI-H226 lung
SF-295 CNS = tested on: SF-295 CNS
SK-MEL-5 melanoma = tested on: SK-MEL-5 melanoma
SNB-75 CNS = tested on: SNB-75 CNS
NCI-H460 lung = tested on: NCI-H460 lung
DU-145 prostate = tested on: DU-145 prostate
MCF7 breast = tested on: MCF7 breast
SNB-19 CNS = tested on: SNB-19 CNS
RPMI-8226 leukemia = tested on: RPMI-8226 leukemia
RXF 393 renal = tested on: RXF 393 renal
COLO 205 colon = tested on: COLO 205 colon
KM12 colon = tested on: KM12 colon
EKVX NSCLC = tested on: EKVX NSCLC
SK-MEL-28 melanoma = tested on: SK-MEL-28 melanoma
ACHN renal = tested on: ACHN renal
NCI-H522 lung = tested on: NCI-H522 lung
NCI-H23 lung = tested on: NCI-H23 lung
786-0 renal = tested on: 786-0 renal
SK-MEL-2 melanoma = tested on: SK-MEL-2 melanoma
NCI/ADR-RES ovarian = tested on: NCI/ADR-RES ovarian
PC-3 prostate = tested on: PC-3 prostate

## Cc1ccc(Nc2ccnc(Nc3cccc(C(N)=O)c3)n2)cc1O
A549 NSCLC
  GI50: 8.44 µM
  TGI: > 25 µM
M14 melanoma
  GI50: 5.87 µM
  TGI: > 25 µM
MALME-3M melanoma
  GI50: 6.27 µM
  TGI: > 25 µM
BT-549 breast
  GI50: 6.4 µM
  TGI: > 25 µM
HT29 colon
  GI50: 13.9 µM
  TGI: > 25 µM
LOX IMVI melanoma
  GI50: 3.02 µM
  TGI: 7.22 µM
HOP-62 NSCLC
  GI50: 5.5 µM
  TGI: > 19 µM
IGROV1 ovarian
  GI50: 5.37 µM
  TGI: 15.1 µM
NCI-H226 lung
  GI50: 5.43 µM
  TGI: > 23.7 µM
SF-295 CNS
  GI50: 7.69 µM
  TGI: > 25 µM
SK-MEL-5 melanoma
  GI50: 6.63 µM
  TGI: > 21.6 µM
SNB-75 CNS
  GI50: 0.431 µM
  TGI: 3.93 µM
NCI-H460 lung
  GI50: 11.4 µM
  TGI: > 25 µM
DU-145 prostate
  GI50: 7.14 µM
  TGI: > 25 µM
MCF7 breast
  GI50: 8.28 µM
  TGI: > 25 µM
SNB-19 CNS
  GI50: 11.5 µM
  TGI: > 25 µM
RPMI-8226 leukemia
  GI50: > 25 µM
  TGI: > 25 µM
RXF 393 renal
  GI50: 0.895 µM
  TGI: 4.84 µM
COLO 205 colon
  GI50: 10.1 µM
  TGI: > 20.6 µM
KM12 colon
  GI50: 7.27 µM
  TGI: > 25 µM
EKVX NSCLC
  GI50: 9.2 µM
  TGI: > 25 µM
SK-MEL-28 melanoma
  GI50: 11.2 µM
  TGI: > 25 µM
ACHN renal
  GI50: 4.32 µM
  TGI: > 25 µM
NCI-H522 lung
  GI50: 3.22 µM
  TGI: > 15.1 µM
NCI-H23 lung
  GI50: 9.44 µM
  TGI: > 25 µM
786-0 renal
  GI50: 8.09 µM
  TGI: > 25 µM
SK-MEL-2 melanoma
  GI50: 8.45 µM
  TGI: > 25 µM
NCI/ADR-RES ovarian
  GI50: > 18.7 µM
  TGI: > 25 µM
PC-3 prostate
  GI50: 5.42 µM
  TGI: > 25 µM
